Patent publication US10669256B2, “Crystalline forms of lasmiditan, preparation methods, pharmaceutical compositions and uses thereof” (priority 2016, dated 2020)
“Also recorded” adds a separate entry of the source. Counter-ions that a name gives are not always drawn.

How the values were obtained:
[1] = Solid state stability experiment (XRD after storage at room temperature under dry condition); type: physicochemical; settings: for 1 day test results (solid form by XRD): stored 1 day; for 10 days test results (solid form by XRD): stored 10 days
Experimental: X-ray powder diffraction (XRPD): performed on Bruder D8 Advance diffractometer. Samples were tested at room temperature. Testing conditions: […] 3-40°, step size 0.02°, and speed 0.2 s/step.
Solid state stability experiment: Placed 20 mg of each of lasmiditan amorphous form of preparation Example 1, lasmiditan hydrochloride amorphous of Preparation Example 2, lasmiditan Form 1, lasmiditan Form 2, lasmiditan Form 3, lasmiditan hydrochloride Form A, lasmiditan hydrochloride Form B, lasmiditan hydrochloride Form C, and lasmiditan hydrochloride Form E of the present invention at room temperature under dry condition, took the samples out and analyzed by XRD at the corresponding time, their XRD pattern are shown in FIGS. 16-18 and FIGS. 46-50.

[2] = Dynamic vapor sorption / isothermal sorption (hygroscopicity); type: physicochemical; settings: for weight change (isothermal sorption plot): between 0 to 80% RH; for weight change (DVS isothermal sorption plot): between 20 to 80% RH
Experimental: Dynamic vapor sorption data and isothermal sorption data were collected on TA Instruments Q5000 TGA. Method: A sample of 1 to 10 mg was placed in a platinum pan; the weight change of the sample during the change in relative humidity from 0% to 80% to 0% was measured.

SMILES	1 day test results (solid form by XRD) ([1]; hydrochloride)	10 days test results (solid form by XRD) ([1]; hydrochloride)	weight change (isothermal sorption plot) ([2]; hydrochloride)	1 day test results (solid form by XRD) [1]	10 days test results (solid form by XRD) [1]	weight change (isothermal sorption plot) [2]	weight change (DVS isothermal sorption plot) [2]	further results
CN1CCC(C(=O)c2cccc(NC(=O)c3c(F)cc(F)cc3F)n2)CC1 [Lasmiditan hydrochloride Form C, lasmiditan hydrochloride]	Form C	Form C	0.9%					10 days test results (solid form by XRD) ([1]; listed as lasmiditan hydrochloride Form C, hydrochloride): remained unchanged; also recorded: still remained their original forms
CN1CCC(C(=O)c2cccc(NC(=O)c3c(F)cc(F)cc3F)n2)CC1 [Lasmiditan Form 3, 2,4,6-trifluoro-N-[6-(1-methyl-piperidine-4-carbonyl)pyridin-2-yl]-benzamide]				Form 3	Form 3	0.7%		10 days test results (solid form by XRD) ([1]; listed as lasmiditan Form 3): still remained their original forms; also recorded: remained unchanged
CN1CCC(C(=O)c2cccc(NC(=O)c3c(F)cc(F)cc3F)n2)CC1 [Lasmiditan hydrochloride Form E, lasmiditan hydrochloride]	Change to Form A							1 day test results (solid form by XRD) ([1]; listed as lasmiditan hydrochloride Form E, hydrochloride): converted to Form A
CN1CCC(C(=O)c2cccc(NC(=O)c3c(F)cc(F)cc3F)n2)CC1 [Lasmiditan amorphous form, 2,4,6-trifluoro-N-[6-(1-methyl-piperidine-4-carbonyl)pyridin-2-yl]-benzamide, reference compound]				began to crystallize		9.5%	9.5%	weight change (isothermal sorption plot) ([2]; listed as Preparation Example 1): 9.5%
CN1CCC(C(=O)c2cccc(NC(=O)c3c(F)cc(F)cc3F)n2)CC1 [Lasmiditan hydrochloride amorphous form, lasmiditan hydrochloride, reference compound]	began to crystallize		8.1%					weight change (isothermal sorption plot) ([2]; listed as Preparation Example 2, hydrochloride): 8.1%
CN1CCC(C(=O)c2cccc(NC(=O)c3c(F)cc(F)cc3F)n2)CC1 [Lasmiditan hydrochloride Form A, lasmiditan hydrochloride]	Form A	Form A	0.1%					10 days test results (solid form by XRD) ([1]; listed as lasmiditan hydrochloride Form A, hydrochloride): remained unchanged; also recorded: still remained their original forms
CN1CCC(C(=O)c2cccc(NC(=O)c3c(F)cc(F)cc3F)n2)CC1 [Lasmiditan Form 2, 2,4,6-trifluoro-N-[6-(1-methyl-piperidine-4-carbonyl)pyridin-2-yl]-benzamide]				Form 2	Form 2	0.1%	0.1%	10 days test results (solid form by XRD) ([1]; listed as lasmiditan Form 2): still remained their original forms; also recorded: remained unchanged
CN1CCC(C(=O)c2cccc(NC(=O)c3c(F)cc(F)cc3F)n2)CC1 [Lasmiditan Form 1, 2,4,6-trifluoro-N-[6-(1-methyl-piperidine-4-carbonyl)pyridin-2-yl]-benzamide]				Form 1	Form 1	0.1%	0.1%	10 days test results (solid form by XRD) ([1]; listed as lasmiditan Form 1): remained unchanged; also recorded: still remained their original forms
CN1CCC(C(=O)c2cccc(NC(=O)c3c(F)cc(F)cc3F)n2)CC1 [Lasmiditan hydrochloride Form B, lasmiditan hydrochloride]	Form B	Form B	4.2%					10 days test results (solid form by XRD) ([1]; listed as lasmiditan hydrochloride Form B, hydrochloride): remained unchanged; also recorded: still remained their original forms
